In patent publication US9629828B2, “Methods of treating traveler's diarrhea and hepatic encephalopathy” (priority 2008, dated 2017):
Entries after “also recorded” stand apart in the source; their conditions may differ.

How the values were obtained:
[1] = test system: patients with hepatic encephalopathy; experiment: First study: adverse events, rifaximin 550 mg BID; format: in vivo, human
Description: Ninety-one percent of patients in the trial were taking lactulose concomitantly. […] (These include adverse events that may be attributable to the underlying disease.)
The following includes adverse events occurring at a greater incidence than placebo, regardless of causal relationship to drug exposure.
A total of 79.9% of subjects (239 of 299) experienced TEAEs during the course of the study.

[2] = target: P-gp transporter (Homo sapiens, UniProt P08183); experiment: In vitro P-gp transporter inhibition; format: in vitro ADME; conditions: 50 μM
P-gp transporter, sequence (P08183 whole entry): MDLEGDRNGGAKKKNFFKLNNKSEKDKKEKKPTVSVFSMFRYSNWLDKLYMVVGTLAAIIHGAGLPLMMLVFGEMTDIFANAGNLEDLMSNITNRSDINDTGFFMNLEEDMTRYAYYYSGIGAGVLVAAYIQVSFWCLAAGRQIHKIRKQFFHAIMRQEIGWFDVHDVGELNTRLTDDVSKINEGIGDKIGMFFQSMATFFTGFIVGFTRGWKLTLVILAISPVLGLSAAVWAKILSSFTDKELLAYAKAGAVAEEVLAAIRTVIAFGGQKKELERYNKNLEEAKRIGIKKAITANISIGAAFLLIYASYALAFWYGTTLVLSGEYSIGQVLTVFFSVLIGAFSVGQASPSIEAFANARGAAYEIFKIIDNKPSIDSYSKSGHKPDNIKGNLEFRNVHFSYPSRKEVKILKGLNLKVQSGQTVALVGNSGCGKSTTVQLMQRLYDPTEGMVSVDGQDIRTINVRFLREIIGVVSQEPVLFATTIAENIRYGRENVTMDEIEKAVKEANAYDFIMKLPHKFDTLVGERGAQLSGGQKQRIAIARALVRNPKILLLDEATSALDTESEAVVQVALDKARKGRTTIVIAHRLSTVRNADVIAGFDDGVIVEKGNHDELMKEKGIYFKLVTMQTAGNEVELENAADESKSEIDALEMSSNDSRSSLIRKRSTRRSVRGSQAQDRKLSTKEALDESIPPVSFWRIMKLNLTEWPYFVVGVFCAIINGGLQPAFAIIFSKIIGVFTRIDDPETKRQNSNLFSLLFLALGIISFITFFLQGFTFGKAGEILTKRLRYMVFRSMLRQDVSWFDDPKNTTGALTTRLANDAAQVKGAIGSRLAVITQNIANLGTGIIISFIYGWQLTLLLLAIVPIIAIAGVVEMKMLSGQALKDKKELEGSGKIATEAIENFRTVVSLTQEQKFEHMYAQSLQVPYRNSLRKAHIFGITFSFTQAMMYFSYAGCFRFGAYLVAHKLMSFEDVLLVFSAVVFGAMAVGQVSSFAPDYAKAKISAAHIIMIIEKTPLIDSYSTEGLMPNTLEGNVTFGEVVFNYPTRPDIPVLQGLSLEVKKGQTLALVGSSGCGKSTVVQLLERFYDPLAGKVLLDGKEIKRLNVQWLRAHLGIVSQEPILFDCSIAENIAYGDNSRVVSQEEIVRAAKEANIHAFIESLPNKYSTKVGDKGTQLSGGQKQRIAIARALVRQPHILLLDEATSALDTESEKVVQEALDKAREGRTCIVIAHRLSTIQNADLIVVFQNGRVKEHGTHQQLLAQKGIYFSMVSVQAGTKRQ

[3] = test system: subjects with a history of recurrent, overt, episodic HE; experiment: Second study (3002, open-label extension): breakthrough overt HE; format: in vivo, human
Protocol: Unlike the first study, subjects were not required to withdraw from the study after experiencing a breakthrough overt HE episode.
Conn scores and asterixis grades were assessed during the course of the study.
Therefore, the incidence of breakthrough overt HE over time during rifaximin therapy was evaluated. Table 24 presents breakthrough overt HE episodes by total number of HE episodes during the course of the study.
Most subjects in the second study (152 of 266) were also in the first study. […] The numbers of overt HE episodes experienced during the 6-month or 12-month intervals prior to the first study or prior to the second study were known.

[4] = test system: rabbits; conditions: rabbit, in vivo
[5] = human
Protocol: The covariates chosen for the analysis are known indicators of hepatic and renal function. A visual diagnostic was performed to detect potential trends between covariates of interest and AUCτ, Cmax, and CL/F.

[6] = target: P-glycoprotein (Homo sapiens, UniProt P08183); experiment: In vitro P-glycoprotein substrate study (efflux ratio, verapamil); format: in vitro ADME
P-glycoprotein, sequence (P08183 whole entry): as above
Description: Therefore, no clinically significant interactions with other drugs affected by P-glycoprotein are anticipated.

[7] = test system: dogs; conditions: dog, in vivo
Protocol: However, plasma drug levels were not measured in these studies. […] The maximum plasma AUC0-8 hr values from the 6 month rat and 9 month dog toxicity studies (range: 42-127 ng·h/mL) was lower than the maximum plasma AUC0-8 hr values in cirrhotic patients (range: 19-306 ng·h/mL).

[8] = test system: Shigella flexneri 2a; experiment: Open-label Shigella flexneri 2a challenge study; format: in vivo, human; conditions: 13 treated subjects, 200 mg every 8 hours 3 days
[9] = both, human, in vivo
Protocol: Two studies evaluated the pharmacokinetics of rifaximin in patients with hepatic impairment. […] Because of the limited systemic absorption of rifaximin, no specific dosing adjustments are recommended for patients with hepatic insufficiency.
A pharmacokinetic investigation was performed in subjects with HE in a dose-finding study.

[10] = test system: CYP3A4; experiment: Clinical drug interaction: rifaximin 550 mg TID on oral midazolam
[11] = clinical; conditions: human, in vivo
Description: Results from the current study were compared with historical data from subjects with normal hepatic function.

[12] = target: T1, cytochrome P450 2D6 (Homo sapiens, UniProt P10635); experiment: In vitro cytochrome P450 inhibition; format: in vitro ADME; conditions: 2 to 200 ng/mL
T1 construct: from tissue; host or cells: human liver fractions
T1 sequence (P10635 whole entry): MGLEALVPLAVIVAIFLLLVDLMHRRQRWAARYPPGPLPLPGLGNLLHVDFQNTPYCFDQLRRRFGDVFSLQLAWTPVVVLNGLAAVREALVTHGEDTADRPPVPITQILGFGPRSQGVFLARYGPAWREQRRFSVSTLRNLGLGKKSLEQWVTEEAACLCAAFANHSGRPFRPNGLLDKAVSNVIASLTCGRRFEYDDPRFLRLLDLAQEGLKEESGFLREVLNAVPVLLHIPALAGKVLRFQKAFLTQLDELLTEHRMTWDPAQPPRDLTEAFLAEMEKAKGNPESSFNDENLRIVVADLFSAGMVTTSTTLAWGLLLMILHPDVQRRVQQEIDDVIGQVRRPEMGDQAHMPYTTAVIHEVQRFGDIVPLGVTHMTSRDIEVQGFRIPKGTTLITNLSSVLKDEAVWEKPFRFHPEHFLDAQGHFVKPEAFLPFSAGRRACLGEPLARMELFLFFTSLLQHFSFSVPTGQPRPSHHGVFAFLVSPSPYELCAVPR

[13] = test system: patients with HE; format: in vivo, human
Description: Total number of hospitalizations, duration of hospitalizations, HE endpoints, and cost of therapy were compared between the 2 treatment regimens.

Structure (SMILES): CO[C@H]1/C=C/O[C@@]2(C)Oc3c(C)c(O)c4c(O)c(c5c(nc6cc(C)ccn65)c4c3C2=O)NC(=O)/C(C)=C\C=C\[C@H](C)[C@H](O)[C@@H](C)[C@@H](O)[C@@H](C)[C@H](OC(C)=O)[C@@H]1C [rifaximin, (2S,16Z,18E,20S,21S,22R,23R,24R,25 S,26S,27S,28E)-5,6,21,23,25-pentahydroxy-27-methoxy-2,4,11,16,20,22,24,26-octamethyl-2,7-(epoxypentadeca-[1,11,13]trienimino)benzofuro[4,5-e]pyrido[1,2-á]-benzimidazole-1,15(2H)-dione,25-acetate]
- Abdominal distension ([1]; 550 mg BID, N = 140): 11 (7.9%) Number (%) of Patients
- Abdominal pain ([1]; 550 mg BID, N = 140): 12 (8.6%) Number (%) of Patients
- Abdominal pain upper ([1]; 550 mg BID, N = 140): 9 (6.4%) Number (%) of Patients
- Anemia ([1]; 550 mg BID, N = 140): 11 (7.9%) Number (%) of Patients
- Arthralgia ([1]; 550 mg BID, N = 140): 9 (6.4%) Number (%) of Patients
- Ascites ([1]; 550 mg BID, N = 140): 16 (11.4%) Number (%) of Patients
- Back pain ([1]; 550 mg BID, N = 140): 9 (6.4%) Number (%) of Patients
- Constipation ([1]; 550 mg BID, N = 140): 9 (6.4%) Number (%) of Patients
- Cough ([1]; 550 mg BID, N = 140): 10 (7.1%) Number (%) of Patients
- Depression ([1]; 550 mg BID, N = 140): 10 (7.1%) Number (%) of Patients
- Dizziness ([1]; 550 mg BID, N = 140): 18 (12.9%) Number (%) of Patients
- Dyspnea ([1]; 550 mg BID, N = 140): 9 (6.4%) Number (%) of Patients
- Edema peripheral ([1]; 550 mg BID, N = 140): 21 (15.0%) Number (%) of Patients
- Fatigue ([1]; 550 mg BID, N = 140): 17 (12.1%) Number (%) of Patients
- Insomnia ([1]; 550 mg BID, N = 140): 10 (7.1%) Number (%) of Patients
- Muscle spasms ([1]; 550 mg BID, N = 140): 13 (9.3%) Number (%) of Patients
- Nasopharyngitis ([1]; 550 mg BID, N = 140): 10 (7.1%) Number (%) of Patients
- Nausea ([1]; 550 mg BID, N = 140): 20 (14.3%) Number (%) of Patients
- Pruritus ([1]; 550 mg BID, N = 140): 13 (9.3%) Number (%) of Patients
- Pyrexia ([1]; 550 mg BID, N = 140): 9 (6.4%) Number (%) of Patients
- Rash ([1]; 550 mg BID, N = 140): 7 (5.0%) Number (%) of Patients
- TEAE ascites ([1]; first study): 11.4%
- TEAE diarrhea ([1]; first study): 10.7%
- TEAE dizziness ([1]; first study): 12.9%
- TEAE fatigue ([1]; first study): 12.1%
- TEAE headache ([1]; first study): 10%
- TEAE nausea ([1]; first study): 14.3%
- TEAE peripheral edema ([1]; first study): 15%
- early study discontinuation due to adverse reactions ([1]; in vivo): 6%
- inhibition of transport of a model P-gp substrate [2]: only partially inhibited
- Subjects with ≧1 breakthrough overt HE episode ([3]; All Rifaximin N = 266): 72 (27.1) n (%)
- Subjects with ≧1 breakthrough overt HE episode ([3]; Continuing Rifaximin N = 70): 18 (25.7) n (%)
- Subjects with ≧1 breakthrough overt HE episode ([3]; New Rifaximin N = 196): 54 (27.6) n (%)
- patients free of breakthrough ([3]; after almost 3 years): approximately 60%
- subjects with 1 breakthrough HE episode ([3]; all rifaximin): 44 subjects
- subjects with 2 breakthrough HE episodes ([3]; all rifaximin): 18 subjects
- subjects with 3 or more breakthrough HE episodes ([3]; all rifaximin): Ten
- reduction in risk of breakthrough HE, continuing subjects vs 3001 placebo ([3]; in vivo): 90%
- subjects with breakthrough overt HE during rifaximin after crossover ([3]; in vivo): 15 of 82
- rate of breakthrough HE episodes adjusted for exposure ([3]; new rifaximin subjects): 0.38 events/PEY
- subjects with >2 HE episodes during rifaximin therapy ([3]; up to 840 days, first plus second study): 3.6%
- toxic effects [4]: negligible toxic effects
- Regression estimate for AUCτ: Albumin [5]: −0.0573
- Regression estimate for AUCτ: INR [5]: −1.7432
- Regression estimate for AUCτ: Intercept [5]: 8.4175
- Regression estimate for AUCτ: Total Bilirubin [5]: 0.0173
- Regression estimate for CL/F: ALT [5]: −0.0028
- Regression estimate for CL/F: Albumin [5]: 0.0783
- Regression estimate for CL/F: INR [5]: 2.5949
- Regression estimate for CL/F: Intercept [5]: −0.8934
- Regression estimate for CL/F: Total Bilirubin [5]: −0.0185
- Regression estimate for Cmax: ALT [5]: 0.0031
- Regression estimate for Cmax: Albumin [5]: −0.0515
- Regression estimate for Cmax: INR [5]: −2.0654
- Regression estimate for Cmax: Intercept [5]: 6.5350
- Regression estimate for Cmax: Total Bilirubin [5]: 0.0207
- P-glycoprotein substrate [6]: substrate of P-glycoprotein; also recorded: substrate for P-glycoprotein
- toxic effects [7]: negligible toxic effects
- rescue treatment with ciprofloxacin [8]: eight subjects received rescue treatment
- mean amount recovered in 24-h urine after last dose [9]: 0.06-0.1 % of dose
- administered dose recovered in urine ([9]; 7 days): less than 0.1%
- CYP3A4 induction in vivo / midazolam exposure [10]: only slightly reduced exposure; also recorded: weak inducer of CYP3A4
- Cmax [11]: < 4 ng/mL
- AUC ([11]; 550 mg): 0.0123 µg·h/mL
- inhibition of 2D6 [12]: did not inhibit
- patients with Conn scores of 3 or 4 ([13]; end of treatment period): 6%
- days hospitalized ([13]; human, in vivo): 2.5 days
- hospitalizations due to HE, cost, HE endpoints vs lactulose ([13]; human, in vivo): dramatically reduced
- patients with asterixis at end of treatment period ([13]; human, in vivo): 63%
- hospitalizations ([13]; rifaximin 400 mg 3 times/day, lactulose 30 mL twice daily): 0.5
